Reference: PubChem BioAssay AID248 (DTP/NCI, 2004)
Toxic doses and inconclusive results are not listed. Rule as the data show it: active = T/C of 150% or more; inactive = T/C below 125%.

System: L1210 leukemia ip in BDF1 mice, survival T/C
Assay: NCI In Vivo Anticancer Drug Screen. Data for tumor model L1210 Leukemia (intraperitoneal) in B6D2F1 (BDF1) mice
Conditions: endpoint: mean survival time, higher = longer survival
In short: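 Value reflects the ratio of survival in compound-treated mice to survival in vehicle-treated controls, with both groups carrying the same transplanted tumor.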

[1] = dose: 100.0 mg/kg/injection, schedule: Q04DX003 (ip), vehicle: Klucel (hydroxypropylcellulose) (HPC)
[2] = dose: 200.0 mg/kg/injection, schedule: Q04DX003 (ip), vehicle: Klucel (hydroxypropylcellulose) (HPC)
[3] = dose: 400.0 mg/kg/injection, schedule: Q04DX003 (ip), vehicle: Klucel (hydroxypropylcellulose) (HPC)
[4] = dose: 100.0 mg/kg/injection, schedule: Q01DX001 (ip), vehicle: saline
[5] = dose: 200.0 mg/kg/injection, schedule: Q01DX001 (ip), vehicle: saline
[6] = dose: 400.0 mg/kg/injection, schedule: Q01DX001 (ip), vehicle: saline
[7] = dose: 100.0 mg/kg/injection, schedule: Q04DX003 (ip), vehicle: saline with Tween-80
[8] = dose: 200.0 mg/kg/injection, schedule: Q04DX003 (ip), vehicle: saline with Tween-80
[9] = dose: 50.0 mg/kg/injection, schedule: Q01DX009 (ip), vehicle: saline with Tween-80
[10] = dose: 100.0 mg/kg/injection, schedule: Q01DX009 (ip), vehicle: saline with Tween-80
[11] = dose: 100.0 mg/kg/injection, schedule: Q04DX002 (ip), vehicle: Klucel (hydroxypropylcellulose) (HPC)
[12] = dose: 200.0 mg/kg/injection, schedule: Q04DX002 (ip), vehicle: Klucel (hydroxypropylcellulose) (HPC)
[13] = dose: 400.0 mg/kg/injection, schedule: Q04DX002 (ip), vehicle: Klucel (hydroxypropylcellulose) (HPC)
[14] = dose: 100.0 mg/kg/injection, schedule: Q01DX009 (ip), vehicle: Klucel (hydroxypropylcellulose) (HPC)
[15] = dose: 200.0 mg/kg/injection, schedule: Q01DX009 (ip), vehicle: Klucel (hydroxypropylcellulose) (HPC)
[16] = dose: 25.0 mg/kg/injection, schedule: Q01DX009 (ip), vehicle: saline
[17] = dose: 75.0 mg/kg/injection, schedule: Q01DX001 (ip), vehicle: carboxymethylcellulose (CMC)
[18] = dose: 150.0 mg/kg/injection, schedule: Q01DX001 (ip), vehicle: carboxymethylcellulose (CMC)
[19] = dose: 25.0 mg/kg/injection, schedule: Q04DX003 (ip), vehicle: saline
[20] = dose: 50.0 mg/kg/injection, schedule: Q01DX009 (ip), vehicle: saline
[21] = dose: 50.0 mg/kg/injection, schedule: Q04DX003 (ip), vehicle: saline

Measured: T/C

O[O][Ge]([c]1ccccc1)([c]1ccccc1)[c]1ccccc1
inactive: [1] 88 % of control | [2] 91 % of control | [3] 88 % of control

NC(=O)c1c(/N=C/c2cc(Br)ccc2O)sc2c1CCCC2
inactive: dose: 25.0 mg/kg/injection, schedule: Q04DX002 (ip), vehicle: saline with Tween-80 87 % of control | dose: 50.0 mg/kg/injection, schedule: Q04DX002 (ip), vehicle: saline with Tween-80 87 % of control | dose: 100.0 mg/kg/injection, schedule: Q04DX002 (ip), vehicle: saline with Tween-80 93 % of control | dose: 400.0 mg/kg/injection, schedule: Q04DX002 (ip), vehicle: saline with Tween-80 87 % of control

CCCCCCCCCCCCCCCCCC(=O)OCC(=O)C(OC(=O)CCCCCCCCCCCCCCCCC)C(OC(=O)CCCCCCCCCCCCCCCCC)C(COC(=O)CCCCCCCCCCCCCCCCC)OC(=O)CCCCCCCCCCCCCCCCC (centres undefined)
inactive: dose: 100.0 mg/kg/injection, schedule: Q01DX001 (ip), vehicle: other 95 % of control | dose: 200.0 mg/kg/injection, schedule: Q01DX001 (ip), vehicle: other 98 % of control | dose: 400.0 mg/kg/injection, schedule: Q01DX001 (ip), vehicle: other 93 % of control

CCOC(=O)Cc1c(C)c2cc(C(=O)c3ccccc3)c(O)cc2oc1=O
inactive: [4] 98 % of control | [5] 96 % of control | [6] 93 % of control

CC(C)(C)C(=O)CC(=O)C(C)(C)C.CC(C)(C)C(=O)CC(=O)C(C)(C)C.CC(C)(C)C(=O)CC(=O)C(C)(C)C.CC(C)(C)C(=O)CC(=O)C(C)(C)C.[Th]
inactive: [7] 96 % of control | [8] 98 % of control | dose: 400.0 mg/kg/injection, schedule: Q04DX003 (ip), vehicle: saline with Tween-80 90 % of control

CCOC(=O)N1C2c3ccccc3C3C(C21)N3C(=O)OCC (centres undefined)
inactive: [4] 105 % of control | [5] 102 % of control | [6] 108 % of control

OC(c1ccccc1)(c1ccccc1)c1ccsc1
inactive: [9] 86 % of control | [10] 86 % of control

O=C1c2ccccc2C(=O)N1Nc1ccccc1
inactive: dose: 5.0 mg/kg/injection, schedule: Q01DX001 (ip), vehicle: carboxymethylcellulose (CMC) 96 % of control | dose: 10.0 mg/kg/injection, schedule: Q01DX001 (ip), vehicle: carboxymethylcellulose (CMC) 113 % of control | dose: 20.0 mg/kg/injection, schedule: Q01DX001 (ip), vehicle: carboxymethylcellulose (CMC) 105 % of control | dose: 40.0 mg/kg/injection, schedule: Q01DX001 (ip), vehicle: carboxymethylcellulose (CMC) 111 % of control | dose: 80.0 mg/kg/injection, schedule: Q01DX001 (ip), vehicle: carboxymethylcellulose (CMC) 94 % of control | [11] 110 % of control | [12] 97 % of control | [13] 103 % of control

CCCCCCCC/C=C\CCCCCCCCOC(N)=O
inactive: dose: 50.0 mg/kg/injection, schedule: Q01DX009 (ip), vehicle: other 96 % of control | dose: 100.0 mg/kg/injection, schedule: Q01DX009 (ip), vehicle: other 94 % of control | [7] 100 % of control | dose: 200.0 mg/kg/injection, schedule: Q01DX009 (ip), vehicle: other 89 % of control | [8] 95 % of control

CC12C(C#N)=C(c3ccccc3)C=C(c3ccccc3)C1=C(c1ccccc1)c1ccccc12 (centres undefined)
inactive: [14] 100 % of control | [1] 89 % of control | [15] 100 % of control | [2] 100 % of control | dose: 400.0 mg/kg/injection, schedule: Q01DX009 (ip), vehicle: Klucel (hydroxypropylcellulose) (HPC) 94 % of control | [3] 94 % of control

CC(=O)Nc1cc(C)cc(C)n1
inactive: dose: 87.5 mg/kg/injection, schedule: Q01DX009 (ip), vehicle: saline with Tween-80 113 % of control | dose: 175.0 mg/kg/injection, schedule: Q01DX009 (ip), vehicle: saline with Tween-80 102 % of control

CCCCCCCCCCCCCCCCCCNC(=O)N(C)Cc1ccccc1
inactive: [11] 99 % of control | [12] 96 % of control | [13] 96 % of control

O=C(O)c1ccc(B(O)O)cc1
inactive: [1] 103 % of control | [2] 103 % of control | [3] 93 % of control

O=C1OC(=O)C2C3C=CC(O3)C12 (centres undefined)
inactive: dose: 6.25 mg/kg/injection, schedule: Q01DX009 (ip), vehicle: saline 97 % of control | dose: 10.0 mg/kg/injection, schedule: Q04DX003 (ip), vehicle: saline with Tween-80 96 % of control | dose: 12.5 mg/kg/injection, schedule: Q01DX009 (ip), vehicle: saline with Tween-80 111 % of control | dose: 12.5 mg/kg/injection, schedule: Q01DX009 (ip), vehicle: saline 96 % of control | dose: 20.0 mg/kg/injection, schedule: Q04DX003 (ip), vehicle: saline with Tween-80 100 % of control | dose: 25.0 mg/kg/injection, schedule: Q01DX009 (ip), vehicle: saline with Tween-80 108 % of control | [16] 95 % of control | dose: 40.0 mg/kg/injection, schedule: Q04DX003 (ip), vehicle: saline with Tween-80 94 % of control | [9] 95 % of control

NCCSc1ccc(Br)cc1
inactive: dose: 75.0 mg/kg/injection, schedule: Q01DX001 (ip), vehicle: other 100 % of control | dose: 150.0 mg/kg/injection, schedule: Q01DX001 (ip), vehicle: other 102 % of control

CCCCS/C=C1/Sc2cc[nH]c2C1=O
inactive: [1] 96 % of control | [2] 96 % of control | [3] 94 % of control

Cc1ccc(S(=O)(=O)[N-][n+]2ccccc2)cc1
inactive: [14] 93 % of control | [15] 93 % of control

CCC#CC(=O)OCC
inactive: dose: 100.0 mg/kg/injection, schedule: Q04DX002 (ip), vehicle: saline 108 % of control | dose: 200.0 mg/kg/injection, schedule: Q04DX002 (ip), vehicle: saline 97 % of control | dose: 400.0 mg/kg/injection, schedule: Q04DX002 (ip), vehicle: saline 105 % of control

CN(C)C(C)(C)CCCNc1ccnc2cc(Cl)ccc12
inactive: [17] 100 % of control | [18] 100 % of control

CCOC(=O)N1c2ccccc2C=CC1OCC (centres undefined)
inactive: dose: 12.0 mg/kg/injection, schedule: Q01DX009 (ip), vehicle: saline 93 % of control | dose: 12.0 mg/kg/injection, schedule: Q04DX003 (ip), vehicle: saline 119 % of control | [16] 89 % of control | [19] 113 % of control | [20] 89 % of control | [21] 94 % of control

CNS(=O)(=O)c1ccccc1C(C)(O)c1ccccc1 (centres undefined)
inactive: [4] 97 % of control | [5] 103 % of control | [6] 97 % of control

O=C(/C=C/c1ccccc1)CC(=O)c1ccccc1
inactive: dose: 100.0 mg/kg/injection, schedule: Q04DX003 (ip), vehicle: DMSO 102 % of control | dose: 200.0 mg/kg/injection, schedule: Q04DX003 (ip), vehicle: DMSO 97 % of control | dose: 400.0 mg/kg/injection, schedule: Q04DX003 (ip), vehicle: DMSO 96 % of control

CCN(CC)c1cccc(OC(=O)Nc2ccc(SC)cc2)c1
inactive: [10] 95 % of control | dose: 200.0 mg/kg/injection, schedule: Q01DX009 (ip), vehicle: saline with Tween-80 103 % of control | dose: 400.0 mg/kg/injection, schedule: Q01DX009 (ip), vehicle: saline with Tween-80 97 % of control

Cn1[nH]c(=S)c(=O)[nH]c1=O
inactive: [4] 111 % of control | [5] 106 % of control | [6] 101 % of control

Cc1ccc(NC(=O)OCCOc2ccc(Br)cc2)cc1[N+](=O)[O-]
inactive: [1] 94 % of control | [2] 90 % of control | [3] 94 % of control

Cc1ccc(N=C(N)N=C(N)N)cc1C
inactive: [17] 97 % of control | [18] 97 % of control | dose: 300.0 mg/kg/injection, schedule: Q01DX001 (ip), vehicle: carboxymethylcellulose (CMC) 91 % of control

C[N+](C)(C)C1(Cc2ccccc2)c2ccccc2-c2ccccc21
inactive: [16] 93 % of control | [19] 96 % of control | [20] 114 % of control | [21] 99 % of control | [7] 97 % of control | dose: 100.0 mg/kg/injection, schedule: Q04DX003 (ip), vehicle: saline 86 % of control
